Values quoted from earlier work, collected in US9775900B2, “Photodynamic diagnosis, formulations usable as photosensitizers for this purpose, method for the production and use thereof” (Sanochemia Pharmazeutika AG, priority 2015, dated 2017).

Settings: pure hypericin

For `Cc1cc(O)c2c(=O)c3c(O)cc(O)c4c5c(O)cc(O)c6c(=O)c7c(O)cc(C)c8c1c2c(c34)c(c78)c65` [hypericin, 1,3,4,6,8,13-hexahydroxy-10,11-dimethylphenanthro (1,10,9,8-opqra) perylene-7,14-dione], the solubility in water is given as “water-insoluble”.
